# Measurements: US20260034146A1, “NEUROACTIVE 19-ALKOXY-17-S[…], PRODRUGS THEREOF, AND METHODS OF TREATMENT USING SAME” (priority 2012, published 2026)
# Legend:
# [1] = target: rat α1β2γ2L type GABAA receptors expressed in Xenopus laevis oocytes (Rattus norvegicus (Rat), UniProt P62813+P63138, INS375LLRMFSFK); test: Oocyte electrophysiology: potentiation of chloride currents mediated by 2 μM GABA, and direct gating; format: cell-based; details: ± SEM; for oocyte electrophysiology, ratio of currents in presence/absence of compound, 0.1 μM: 0.1 μM compound; for oocyte electrophysiology, ratio of currents in presence/absence of compound, 0.1 μM / oocyte electrophysiology, ratio of currents in presence/absence of compound, 1 μM / oocyte electrophysiology, ratio of currents in presence/absence of compound, 10 μM: 2 μM GABA control, N≥4 oocytes; for oocyte electrophysiology, ratio of currents in presence/absence of compound, 1 μM: 1 μM compound; for oocyte electrophysiology, ratio of currents in presence/absence of compound, 10 μM: 10 μM compound; for (gating) 10 μM, ratio of compound only current/2 μM GABA current: direct current gated by 10 μM compound in the absence of GABA, N≥4
# Protocol: The compounds of the present disclosure were evaluated for the ability to potentiate chloride currents mediated by 2 μM GABA at rat α1β2γ2L type GABAA receptors expressed in Xenopus laevis oocytes and the results are shown in Table 2.
# The GABA concentration used for the control response was 2 μM. Each compound was evaluated on at least four different oocytes at the concentrations indicated, and the results reported are the ratio of currents measured in the presence/absence of added compound. Gating represents direct current gated by 10 μM compound in the absence of GABA, and this current is reported as the ratio of compound only current/2 μM GABA current. Error limits are calculated as standard error of the mean (N≥4). Methods used are known in the art (see Jiang, X., et al.).
# [2] = target: picrotoxin binding site on GABAA receptors; test: [35S]-TBPS displacement (inhibition of [35S]-TBPS binding); details: duplicate experiments performed in triplicate; ± standard error of the mean
# Protocol: The IC50 values for non-competitive displacers of [^35S]-TBPS from the picrotoxin binding site on GABAA receptors are reported in Table 1.
# ^aResults presented are from duplicate experiments performed in triplicate. Error limits are calculated as standard error of the mean. Methods used are known in the art (see Jiang, X., et al., Neurosteroid analogues. 9. Conformationally constrained pregnanes: structure-activity studies of 13,24-cyclo-18,21-dinorcholane analogues of the GABA modulatory and anesthetic steroids (3α,5α)- and […]. J. Med. Chem., 46: 5334-48 (2003)—the contents of which are hereby incorporated by reference in their entirety).
# [3] = system: Tadpole; test: Tadpole loss of righting reflex (LRR) and loss of swimming reflex (LSR); format: in vivo; details: N=10 or more animals at each of five or more concentrations, ± SEM; for Tadpole LSR EC50 (μM): loss of swimming reflex; for Tadpole LRR EC50 (μM): loss of righting reflex
# Protocol: Table 3 discloses the anesthetic effects of the compounds of the present disclosure. In particular, the anesthetic effect of the compounds of the present disclosure on Loss of Righting Reflex (LRR) and Loss of Swimming Reflex (LSR).
# Methods used are known in the art (see Jiang, X., et al.). Error limits are calculated as standard error of the mean (N=10 or more animals at each of five or more different concentrations).
# [4] = system: male Sprague Dawley rats; test: Rat loss of righting reflex (LRR), intravenous bolus; format: in vivo; details: rat dose 15 mg/kg
# Protocol: The plasma pharmacokinetics and a qualitative assessment of sedation were obtained in male Sprague Dawley rats according to the following procedure. Rats were dosed by intravenous bolus dose (60 seconds) via the foot dorsal vein at doses ranging from 5 to 15 mg/kg in an appropriate vehicle. In order to assess sedation, rats were gently restrained by hand to a lateral position for dose administration. […] If the animal was unable to return to an upright position, the time was recorded as the onset of loss of righting reflex (LRR). […] Sluggish or incomplete righting twice consecutively within a 30 second interval qualifies as a loss of righting reflex. After onset of LRR, animals were assessed every 5 minutes in the same manner. Recovery of righting reflex is defined as the ability of a rat to right itself completely within 20 seconds of being placed in dorsal recumbency. The duration of LRR is defined as the time interval between LRR and the return of righting reflex.
# [5] = system: male beagle dogs; test: Dog duration of lateral recumbence, intravenous bolus; format: in vivo; details: dog dose 5 mg/kg
# Protocol: The plasma pharmacokinetics and a qualitative assessment of sedation were obtained in male beagle dogs according to the following procedure. Dogs were dosed by intravenous bolus dose (60 seconds) via the cephalic vein at 5 mg/kg dose in an appropriate vehicle. In order to assess sedation, dogs were gently restrained for dose administration. If decreased muscle tone, limb weakness, or head drop was observed during dose administration, onset of lateral recumbence was recorded. […] Sluggish or incomplete righting to the sternal position qualifies as lateral recumbence. After onset of lateral recumbence, animals were assessed every 5 minutes in the same manner. The duration of lateral recumbence was recorded as the time interval between onset of lateral recumbence and the return to sternal position.
smiles,measurement,setting,value
"COC[C@]12CCC(O)CC1CC[C@@H]1[C@@H]2CC[C@]2(C)C(=O)CC[C@@H]12 (stereo in doubt) [30, MQ-94, (3α,5β)-3-Hydroxy-19-methoxyandrostan-17-one]","oocyte electrophysiology, ratio of currents in presence/absence of compound, 0.1 μM",[1],0.90 ± 0.02
same,"oocyte electrophysiology, ratio of currents in presence/absence of compound, 1 μM",[1],0.88 ± 0.01
same,"oocyte electrophysiology, ratio of currents in presence/absence of compound, 10 μM",[1],0.84 ± 0.02
same,"(gating) 10 μM, ratio of compound only current/2 μM GABA current",[1],0.03
same,IC50,[2],> 30000 nM
same,Tadpole LSR EC50 (μM),[3],None
"COC[C@]12CCC(=O)C[C@@H]1CC[C@H]1[C@@H]3CC[C@H](OC)[C@@]3(C)CC[C@@H]12 [7, MQ-88, (5α,17β)-17,19-Dimethoxyandrostan-3-one]","oocyte electrophysiology, ratio of currents in presence/absence of compound, 0.1 μM",[1],1.00 ± 0
same,"oocyte electrophysiology, ratio of currents in presence/absence of compound, 1 μM",[1],0.85 ± 0.01
same,"oocyte electrophysiology, ratio of currents in presence/absence of compound, 10 μM",[1],1.07 ± 0.02
same,"(gating) 10 μM, ratio of compound only current/2 μM GABA current",[1],0.04 ± 0.03
same,IC50,[2],8700 nM
"COC[C@]12CC[C@@H](O)C[C@@H]1CC[C@H]1[C@@H]3CC[C@H](OC)[C@@]3(C)CC[C@@H]12 [8, MQ-89, (5α,17β)-17,19-Dimethoxyandrostan-3-ol]","oocyte electrophysiology, ratio of currents in presence/absence of compound, 0.1 μM",[1],1.65 ± 0.08
same,"oocyte electrophysiology, ratio of currents in presence/absence of compound, 1 μM",[1],7.63 ± 0.77
same,"oocyte electrophysiology, ratio of currents in presence/absence of compound, 10 μM",[1],20.9 ± 2.73
same,"(gating) 10 μM, ratio of compound only current/2 μM GABA current",[1],0.22 ± 0.01
same,IC50,[2],56 ± 2 nM
same,Duration of Rat LRR,[4],C (C >20 min)
same,Duration of Dog Lateral Recumbence,[5],C (C >20 min)
"COC[C@]12CC[C@@H](O)C[C@@H]1CC[C@@H]1[C@@H]2CC[C@@]2(C)[C@H]1CC[C@@]21CO1 [12, MQ-90, (3α,5α,17β)-19-Methoxyspiro[androstane-17,2′-oxiran]-3-ol]","oocyte electrophysiology, ratio of currents in presence/absence of compound, 0.1 μM",[1],1.24 ± 0.05
same,"oocyte electrophysiology, ratio of currents in presence/absence of compound, 1 μM",[1],7.40 ± 1.43
same,"oocyte electrophysiology, ratio of currents in presence/absence of compound, 10 μM",[1],18.7 ± 6.19
same,"(gating) 10 μM, ratio of compound only current/2 μM GABA current",[1],0.14 ± 0.04
same,IC50,[2],79 ± 4 nM
"COC[C@]12CC[C@@H](O)C[C@@H]1CC[C@@H]1[C@@H]2CC[C@]2(C)C(C#N)=CC[C@@H]12 [15, MQ-91, (3α,5α)-3-Hydroxy-19-methoxyandrost-16-ene-17-carbonitrile]","oocyte electrophysiology, ratio of currents in presence/absence of compound, 0.1 μM",[1],1.27 ± 0.13
same,"oocyte electrophysiology, ratio of currents in presence/absence of compound, 1 μM",[1],5.34 ± 0.86
same,"oocyte electrophysiology, ratio of currents in presence/absence of compound, 10 μM",[1],25.6 ± 3.23
same,"(gating) 10 μM, ratio of compound only current/2 μM GABA current",[1],0.10 ± 0.09
same,IC50,[2],118 ± 13 nM
"COC[C@]12CC[C@@H](O)C[C@@H]1CC[C@H]1[C@@H]3CC[C@H](C(C)=O)[C@@]3(C)CC[C@@H]12 [17, MQ-93, (3α,5α)-3-Hydroxy-19-methoxypregnan-20-one]","oocyte electrophysiology, ratio of currents in presence/absence of compound, 0.1 μM",[1],2.15 ± 0.19
same,"oocyte electrophysiology, ratio of currents in presence/absence of compound, 1 μM",[1],12.8 ± 1.74
same,"oocyte electrophysiology, ratio of currents in presence/absence of compound, 10 μM",[1],33.8 ± 5.44
same,"(gating) 10 μM, ratio of compound only current/2 μM GABA current",[1],0.23 ± 0.07
same,IC50,[2],47 ± 4 nM
same,Duration of Rat LRR,[4],C (C >20 min)
"COC[C@]12CC[C@@H](O)C[C@@H]1CC[C@H]1[C@@H]3CC[C@H](C(=O)CO)[C@@]3(C)CC[C@@H]12 [20, MQ-98, (3α,5α)-3,21-Dihydroxy-19-methoxypregnan-20-one]","oocyte electrophysiology, ratio of currents in presence/absence of compound, 0.1 μM",[1],0.98 ± 0.01
same,"oocyte electrophysiology, ratio of currents in presence/absence of compound, 1 μM",[1],2.76 ± 0.27
same,"oocyte electrophysiology, ratio of currents in presence/absence of compound, 10 μM",[1],19.0 ± 2.31
same,"(gating) 10 μM, ratio of compound only current/2 μM GABA current",[1],0.09 ± 0.05
same,IC50,[2],345 ± 61 nM
same,Duration of Rat LRR,[4],A (A <10 min)
"COC[C@]12CCC(=O)C=C1CC[C@@H]1[C@@H]2CC[C@]2(C)[C@@H](OC)CC[C@@H]12 [24, MQ-99, (17β)-17,19-Dimethoxyandrost-4-en-3-one]","oocyte electrophysiology, ratio of currents in presence/absence of compound, 0.1 μM",[1],0.88 ± 0.08
same,"oocyte electrophysiology, ratio of currents in presence/absence of compound, 1 μM",[1],0.63 ± 0.06
same,"oocyte electrophysiology, ratio of currents in presence/absence of compound, 10 μM",[1],1.06 ± 0.17
same,"(gating) 10 μM, ratio of compound only current/2 μM GABA current",[1],0.11 ± 0.17
same,IC50,[2],14500 nM
same,Tadpole LRR EC50 (μM),[3],None
same,Tadpole LSR EC50 (μM),[3],None
"COC[C@]12CC[C@@H](O)CC1=CC[C@@H]1[C@@H]2CC[C@]2(C)[C@@H](OC)CC[C@@H]12 [25, MQ-101, (3α,17β)-17,19-Dimethoxyandrost-5-en-3-ol]","oocyte electrophysiology, ratio of currents in presence/absence of compound, 0.1 μM",[1],0.94 ± 0.07
same,"oocyte electrophysiology, ratio of currents in presence/absence of compound, 1 μM",[1],1.97 ± 0.08
same,"oocyte electrophysiology, ratio of currents in presence/absence of compound, 10 μM",[1],15.7 ± 0.90
same,"(gating) 10 μM, ratio of compound only current/2 μM GABA current",[1],0.08 ± 0.07
same,IC50,[2],583 ± 71 nM
"COC[C@]12CC[C@H](O)CC1=CC[C@@H]1[C@@H]2CC[C@]2(C)[C@@H](OC)CC[C@@H]12 [26, MQ-100, (3β,17β)-17,19-Dimethoxyandrost-5-en-3-ol]","oocyte electrophysiology, ratio of currents in presence/absence of compound, 0.1 μM",[1],0.83 ± 0.03
same,"oocyte electrophysiology, ratio of currents in presence/absence of compound, 1 μM",[1],0.76 ± 0.02
same,"oocyte electrophysiology, ratio of currents in presence/absence of compound, 10 μM",[1],0.78 ± 0.02
same,"(gating) 10 μM, ratio of compound only current/2 μM GABA current",[1],0.02 ± 0.02
same,IC50,[2],17800 nM
same,Tadpole LRR EC50 (μM),[3],None
same,Tadpole LSR EC50 (μM),[3],None
"COC[C@]12CC[C@H](O)C[C@@H]1CC[C@H]1[C@@H]3CC[C@H](OC)[C@@]3(C)CC[C@@H]12 [31, MQ-96, (3β,5α,17β)-17,19-Dimethoxyandrostan-3-ol]","oocyte electrophysiology, ratio of currents in presence/absence of compound, 0.1 μM",[1],0.91 ± 0.02
same,"oocyte electrophysiology, ratio of currents in presence/absence of compound, 1 μM",[1],0.97 ± 0.05
same,"oocyte electrophysiology, ratio of currents in presence/absence of compound, 10 μM",[1],1.10 ± 0.05
same,"(gating) 10 μM, ratio of compound only current/2 μM GABA current",[1],0.02 ± 0
same,IC50,[2],7800 nM
